According to ChEMBL document CHEMBL1201862, “PubChem BioAssay data set” (2004):
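Each compound was tested at five concentrations against cells in 96-well plates for 48 hours. GI50 = concentration required for 50% inhibition of growth.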 The source made the active and inactive calls. No stated cut-off is given here; in the data, active = GI50 up to about 1.1 µM and inactive = higher.

How the values were obtained:
Assay in all cases: inhibition of tumour cell growth, NCI panel, 48 h
LOX IMVI = system: LOX IMVI
M14 = system: M14
RPMI-8226 = system: RPMI-8226
SNB-75 = system: SNB-75
SF-295 = system: SF-295
HCC 2998 = system: HCC 2998
K562 = system: K562
OVCAR-4 = system: OVCAR-4
CCRF-CEM = system: CCRF-CEM
OVCAR-5 = system: OVCAR-5
RXF 393 = system: RXF 393
Malme-3M = system: Malme-3M
SK-MEL-5 = system: SK-MEL-5
COLO 205 = system: COLO 205
T47D = system: T47D
MDA-N = system: MDA-N
PC-3 = system: PC-3
SR = system: SR
NCI/ADR-RES = system: NCI/ADR-RES

SMILES	GI50 (LOX IMVI)	GI50 (M14)	GI50 (RPMI-8226)	GI50 (SNB-75)	GI50 (SF-295)	GI50 (HCC 2998)	GI50 (K562)	GI50 (OVCAR-4)	GI50 (CCRF-CEM)	GI50 (OVCAR-5)	GI50 (RXF 393)	GI50 (Malme-3M)	GI50 (SK-MEL-5)	GI50 (COLO 205)	GI50 (T47D)	GI50 (MDA-N)	GI50 (PC-3)	GI50 (SR)	GI50 (NCI/ADR-RES)
Cc1c(Cl)ccc2c1NC(=O)C2(O)CC(=O)c1ccc2ccccc2c1 (stereo not drawn)	44.7 µM (inactive)	86.1 µM (inactive)	19.1 µM (inactive)	14.2 µM (inactive)	88.3 µM (inactive)	> 100 µM (inactive)	28.6 µM (inactive)	46.9 µM (inactive)	29 µM (inactive)	> 100 µM (inactive)	16 µM (inactive)	> 100 µM (inactive)	> 10 µM (inactive)	85.3 µM (inactive)	–	–	–	–	–
Cn1c(=O)c2/c(n(C)c1=O)=N\C=c1\c(=O)n(C)c(=O)n(C)\c1=N\C=2	–	> 100 µM (inactive)	–	39.4 µM (inactive)	> 100 µM (inactive)	> 100 µM (inactive)	> 100 µM (inactive)	> 100 µM (inactive)	> 100 µM (inactive)	> 100 µM (inactive)	> 100 µM (inactive)	> 100 µM (inactive)	> 100 µM (inactive)	> 100 µM (inactive)	–	–	–	–	–
COc1ccc2[nH]c3c([N+](=O)[O-])ccc(NCCN(C)C)c3/c(=N/CCN(C)C)c2c1	1.62 µM (inactive)	> 10 µM (inactive)	0.421 µM (active)	1.8 µM (inactive)	1.58 µM (inactive)	0.867 µM (active)	1.22 µM (inactive)	0.521 µM (active)	0.237 µM (active)	–	1.03 µM (active)	2.58 µM (inactive)	1.86 µM (inactive)	2.01 µM (inactive)	> 10 µM (inactive)	1.75 µM (inactive)	0.676 µM (active)	0.117 µM (active)	–
CCCCCCCCCCCCC/C=C/[C@@H](O)[C@H](COC1OC(CO)C(OC2OC(CO)C(O)C(OC3(C(=O)O)CC(O)C(NC(C)=O)C(C(O)C(O)CO)O3)C2O)C(O)C1O)N=[N+]=[N-] (stereo partly drawn)	20.2 µM (inactive)	18.7 µM (inactive)	95.3 µM (inactive)	15.9 µM (inactive)	26.4 µM (inactive)	> 100 µM (inactive)	27.4 µM (inactive)	> 100 µM (inactive)	22.5 µM (inactive)	56 µM (inactive)	20.7 µM (inactive)	21.8 µM (inactive)	17.4 µM (inactive)	17.8 µM (inactive)	48.5 µM (inactive)	> 100 µM (inactive)	24.2 µM (inactive)	–	21.8 µM (inactive)
NC(=S)N/N=C1\CCCCC1C(O)(C(F)(F)Cl)C(F)(F)Cl (stereo not drawn)	> 10 µM (inactive)	> 10 µM (inactive)	> 10 µM (inactive)	> 10 µM (inactive)	> 10 µM (inactive)	> 10 µM (inactive)	> 10 µM (inactive)	> 10 µM (inactive)	> 10 µM (inactive)	> 10 µM (inactive)	> 10 µM (inactive)	> 10 µM (inactive)	> 10 µM (inactive)	> 10 µM (inactive)	> 10 µM (inactive)	> 10 µM (inactive)	> 10 µM (inactive)	–	> 10 µM (inactive)
CC(=O)/C(=C/c1ccccc1F)C(=O)c1ccccc1	17.8 µM (inactive)	56 µM (inactive)	18.3 µM (inactive)	38.9 µM (inactive)	43.8 µM (inactive)	16.2 µM (inactive)	–	67.8 µM (inactive)	–	> 100 µM (inactive)	17.4 µM (inactive)	–	42.9 µM (inactive)	60.5 µM (inactive)	24.9 µM (inactive)	37.9 µM (inactive)	27.7 µM (inactive)	–	29.1 µM (inactive)
C[C@@H](c1ccccc1)n1c(N)c(-c2ccccn2)c2ccc([N+](=O)[O-])cc2c1=O	> 100 µM (inactive)	–	–	12.8 µM (inactive)	–	> 100 µM (inactive)	–	80.2 µM (inactive)	32.1 µM (inactive)	–	–	–	25.7 µM (inactive)	38.2 µM (inactive)	43.2 µM (inactive)	88.7 µM (inactive)	17.5 µM (inactive)	32.6 µM (inactive)	26.9 µM (inactive)
CC1OC(O[C@H]2C3C=CO[C@@H](OC4OC(CO)C(O)C(O)C4O)C3[C@@]3(COC(=O)/C=C/c4ccc(O)cc4)O[C@@H]23)C(O)C(O)C1O (stereo partly drawn)	> 100 µM (inactive)	> 100 µM (inactive)	> 100 µM (inactive)	> 100 µM (inactive)	> 100 µM (inactive)	> 100 µM (inactive)	> 100 µM (inactive)	> 100 µM (inactive)	–	> 100 µM (inactive)	> 100 µM (inactive)	> 100 µM (inactive)	> 100 µM (inactive)	> 100 µM (inactive)	> 100 µM (inactive)	> 100 µM (inactive)	> 100 µM (inactive)	–	> 100 µM (inactive)
COc1ccc2c(=O)c(-c3cc4c(cc3OC)OCO4)coc2c1	> 100 µM (inactive)	> 100 µM (inactive)	> 100 µM (inactive)	93.3 µM (inactive)	37.7 µM (inactive)	> 100 µM (inactive)	–	> 100 µM (inactive)	> 100 µM (inactive)	> 100 µM (inactive)	–	–	> 100 µM (inactive)	> 100 µM (inactive)	> 100 µM (inactive)	–	> 100 µM (inactive)	> 100 µM (inactive)	> 100 µM (inactive)
COc1ccc2c(c1)/C(=C\c1c(Cl)nc3n1CCS3)C(=O)N2	9.71 µM (inactive)	7.5 µM (inactive)	4.03 µM (inactive)	10.8 µM (inactive)	3.72 µM (inactive)	2.74 µM (inactive)	3.02 µM (inactive)	11.9 µM (inactive)	6.31 µM (inactive)	13.5 µM (inactive)	2.13 µM (inactive)	11.2 µM (inactive)	5.06 µM (inactive)	3.14 µM (inactive)	5.16 µM (inactive)	1.48 µM (inactive)	3.36 µM (inactive)	–	4.48 µM (inactive)
SC1=NNC2(C(Cl)=N1)c1ccccc1-c1ccccc12	> 10 µM (inactive)	> 10 µM (inactive)	> 10 µM (inactive)	> 10 µM (inactive)	–	> 10 µM (inactive)	> 10 µM (inactive)	> 10 µM (inactive)	> 10 µM (inactive)	–	–	> 10 µM (inactive)	> 10 µM (inactive)	> 10 µM (inactive)	> 10 µM (inactive)	> 10 µM (inactive)	–	> 10 µM (inactive)	> 10 µM (inactive)
C[C@]12CC[C@H]3[C@@H](CCC4=C/C(=N/OCCN5CCCCC5)CC[C@@]43C)[C@@H]1CC[C@@H]2O	11 µM (inactive)	8.02 µM (inactive)	10.7 µM (inactive)	7.26 µM (inactive)	13.8 µM (inactive)	14.4 µM (inactive)	2.75 µM (inactive)	13.9 µM (inactive)	9.31 µM (inactive)	16.1 µM (inactive)	11.8 µM (inactive)	15 µM (inactive)	8.63 µM (inactive)	16.1 µM (inactive)	28 µM (inactive)	15 µM (inactive)	16.2 µM (inactive)	–	16.7 µM (inactive)
O=C1NI(C#Cc2ccccc2)c2ccccc21	> 100 µM (inactive)	> 100 µM (inactive)	43.7 µM (inactive)	–	> 100 µM (inactive)	–	> 100 µM (inactive)	53 µM (inactive)	40.6 µM (inactive)	–	–	> 100 µM (inactive)	> 100 µM (inactive)	29.7 µM (inactive)	53 µM (inactive)	> 100 µM (inactive)	19 µM (inactive)	> 100 µM (inactive)	> 100 µM (inactive)
CCc1n[nH]c(=O)n1N	> 100 µM (inactive)	> 100 µM (inactive)	> 100 µM (inactive)	> 100 µM (inactive)	> 100 µM (inactive)	> 100 µM (inactive)	> 100 µM (inactive)	> 100 µM (inactive)	> 100 µM (inactive)	> 100 µM (inactive)	–	> 100 µM (inactive)	> 100 µM (inactive)	> 100 µM (inactive)	> 100 µM (inactive)	–	> 100 µM (inactive)	> 100 µM (inactive)	> 100 µM (inactive)
CCOC(=O)CO/N=C1/C(=C2/C(=O)Nc3ccccc32)Nc2ccccc21	> 100 µM (inactive)	> 100 µM (inactive)	> 100 µM (inactive)	3.39 µM (inactive)	33.3 µM (inactive)	> 100 µM (inactive)	> 100 µM (inactive)	3.24 µM (inactive)	> 100 µM (inactive)	> 100 µM (inactive)	7.82 µM (inactive)	> 100 µM (inactive)	49.5 µM (inactive)	> 100 µM (inactive)	2.29 µM (inactive)	> 100 µM (inactive)	78.7 µM (inactive)	–	> 100 µM (inactive)
COc1cc(/C=C2/C[C@H]3[C@@H]4CCC5=CC(=O)CC[C@]5(C)[C@H]4CC[C@]3(C)NC2=O)cc(OC)c1OC	–	27.4 µM (inactive)	9.64 µM (inactive)	15.6 µM (inactive)	20 µM (inactive)	21.1 µM (inactive)	–	39.4 µM (inactive)	20.8 µM (inactive)	13.1 µM (inactive)	12.5 µM (inactive)	26.7 µM (inactive)	11.9 µM (inactive)	18.5 µM (inactive)	13 µM (inactive)	26.4 µM (inactive)	21.1 µM (inactive)	–	25.1 µM (inactive)
COc1cc2c(cc1OCCCCOc1cc(-c3ccc(F)cc3)nc(C)n1)N=C[C@@H]1CCCN1C2=O	0.166 µM (active)	0.678 µM (active)	0.0519 µM (active)	0.723 µM (active)	0.303 µM (active)	0.029 µM (active)	0.267 µM (active)	0.26 µM (active)	0.135 µM (active)	0.272 µM (active)	0.429 µM (active)	0.82 µM (active)	0.593 µM (active)	0.346 µM (active)	0.294 µM (active)	–	0.759 µM (active)	0.16 µM (active)	0.45 µM (active)
